This is an account of results in PubChem BioAssay (NCI).

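Each compound was tested at five concentrations against cells in 96-well plates for 48 hours. The concentration for 50% growth inhibition is given as GI50. TGI: total growth inhibition.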 Where only a bound is given, the exact number is not on record here.

Experiment in all cases: NCI-60 cell line screen, 48 h
The test system of assay [1] is SW-620 colon.
The test system of assay [2] is A549 NSCLC.
Assay [3] has as its system LOX IMVI melanoma.
Assay [4] concerns OVCAR-4 ovarian.
The subject of assay [5] is SK-OV-3 ovarian.
Assay [6] concerns HCT-116 colon.
The test system of assay [7] is TK-10 renal.
In assay [8] the test system is OVCAR-5 ovarian.
For assay [9], the system named is MCF7 breast.
The subject of assay [10] is A498 renal.

As to `CN(C)c1nc(N(C)C)nc(N(C)CN(C)c2ccc(Cl)cc2)n1`, the TGI in assay [1], in assay [2], in assay [3], in [4], in assay [5] and in assay [6] was more than 100 µM throughout. The compound also returned a TGI in [7] of more than 100 µM.
Consider `CN(c1cc2ncc(=O)[nH]c2cc1NC(N)=NCc1ccc(Cl)cc1)C1CCCCC1`, for which the GI50 is 4.33 µM in [1]; 9.11 µM in assay [2]; 1.75 µM in [3]; 6.21 µM in assay [4]; 6.58 µM in assay [8]; 7.6 µM in [5]. Further, the GI50 in assay [6] is 5.44 µM; in assay [7] it was 7.44 µM; in assay [9] it was 1.75 µM; in [10], 8.04 µM. The TGI in [1] came out at 11.2 µM; in assay [2] it was 18.8 µM; in assay [3], 5.88 µM; in assay [4] it was 17.2 µM; in assay [8], 14.1 µM; in assay [5], 15.8 µM. For the same compound, the TGI in [6] stood at 12.3 µM; in assay [7], 15.2 µM; in assay [9] it was 7.52 µM; in assay [10] it was 15.4 µM.
For `COc1ccc2c(c1)CCN=C2Cc1cc(OC)c(OC)cc1CCCl`, the TGI in [1], in assay [2], in assay [3], in [4], in assay [8] and in assay [5] was more than 100 µM in each case. The TGI in assay [6], in assay [7] and in assay [9] was more than 100 µM throughout.
As to `Cc1nc2c(n1C)C(=O)c1nc(CBr)[nH]c(=O)c1C2=O`, the TGI in assay [1], in assay [2], in assay [3], in [5], in [6] and in [7] was more than 100 µM each time. The compound also yielded a TGI in assay [10] of more than 100 µM.
For the compound `O=C(O)c1cc(=O)[nH]c(SCc2ccccc2)n1`, the TGI in assay [1], in [2], in [3], in assay [4], in assay [8] and in assay [6] was more than 100 µM in each case. Also, the TGI in assay [7] and in [10] was more than 100 µM in each case.
In the case of `CC(=O)Oc1c(C)c2c(O)c3c1C1=C(OCOC1=C(C)C3=O)/C(C)=C\C(C)(O)C(O)C(C)C(O)C1C(=O)OC(C(C)C1O)C(C)(O)/C=C/C=C(C)C(=O)N2` (centres undefined), the TGI is more than 100 µM in [1]; more than 100 µM in [2]; more than 100 µM in assay [3]; 88.5 µM in [8]; more than 100 µM in assay [5]; more than 100 µM in assay [6]. For the same compound, the TGI in assay [9] and in [10] was more than 100 µM each time.
As to `O=Cc1cc([N+](=O)[O-])no1`, the TGI in assay [1] was more than 100 µM; in assay [3] it was more than 100 µM; in assay [4], 35.8 µM; in assay [8], more than 100 µM; in assay [5] it was more than 100 µM; in assay [6], 33.7 µM. Moreover, the TGI in assay [7] is more than 100 µM; in assay [9], 86.9 µM; in [10], more than 100 µM.
Regarding `Cc1ccc(NP(=O)(Oc2ccccc2)N(CCCl)CCCl)cc1` (centres undefined), the TGI in [1], in assay [2], in assay [4], in [8], in assay [5] and in [6] was more than 100 µM each time. The TGI in assay [7] and in assay [10] was more than 100 µM throughout.
For the compound `O=C(C=P(c1ccccc1)(c1ccccc1)c1ccccc1)c1cccc(-c2cccc([N+](=O)[O-])c2)c1`, the TGI is 26.8 µM in assay [1]; more than 100 µM in assay [2]; 9.63 µM in assay [3]; 15.5 µM in assay [4]; more than 100 µM in [8]; 51.2 µM in [5]. The TGI is more than 100 µM in assay [6], more than 100 µM in assay [7], more than 100 µM in assay [9] and 7.87 µM in assay [10].
In the case of `c1ccc(C2CC(c3cccc(Nc4ccncc4)c3)=NN2c2ccccc2)cc1` (centres undefined), the GI50 in assay [1] is 1.65 µM; in assay [3], 1.66 µM; in assay [4] it was 1.72 µM; in assay [8], 1.83 µM; in assay [5], 2.38 µM; in [6], 1.66 µM. The values for the GI50 in assay [7], in [9] and in [10] were 1.86 µM, 1.61 µM and 1.42 µM, respectively. The TGI was determined as 3.27 µM in assay [1]; 3.05 µM in assay [3]; 3.43 µM in [4]; 3.65 µM in assay [8]; 5.49 µM in [5]; 3.25 µM in [6]. For the same compound, the TGI in assay [7] came out at 3.6 µM; in [9], 3.29 µM; in assay [10] it was 3.03 µM.
With `O=S1(=O)C(c2ccccc2)C(N2CCCCC2)C1C1CC2c3ccccc3C1c1ccccc12` (centres undefined), the TGI in assay [1], in assay [2], in [3], in [4], in assay [8] and in assay [5] was more than 100 µM throughout. Also, the TGI in assay [6], in [7], in assay [9] and in assay [10] was more than 100 µM throughout.
On to `CSc1nc(NC2OCC(OC(C)=O)C(OC(C)=O)C2OC(C)=O)c(N=C(C)C(C)=O)c(=O)[nH]1` (centres undefined), for which the TGI in [1], in [2], in assay [3], in assay [4], in assay [8] and in assay [6] was more than 100 µM throughout. Further, the TGI in [7] and in assay [10] was more than 100 µM each time.
Consider `OC1(c2ccc(Cl)cc2)c2c(ccc3c2OCO3)C2=NCCN21` (centres undefined), for which the TGI in assay [1], in assay [2], in [3], in assay [4], in [8] and in assay [5] was more than 100 µM each time. For the same compound, the TGI was more than 100 µM in [6], 45.7 µM in assay [7], more than 100 µM in [9] and 48.2 µM in assay [10].
Regarding `CCOC(=O)C[C@@H]1C2(C=C[C@@]13CO3)OCC(C)(C)CO2`, the TGI in [1] was more than 100 µM; in assay [2], more than 100 µM; in assay [3], more than 100 µM; in assay [4], 97.4 µM; in [8], more than 100 µM; in assay [5] it was more than 100 µM. Further, the TGI in assay [6], in assay [7], in assay [9] and in [10] was more than 100 µM in each case.
With `CCN(CC)CCCC(C)Nc1ccnc2cc3ccccc3cc12` (centres undefined), the TGI in assay [1] is more than 100 µM; in assay [2] it was more than 100 µM; in [3], more than 100 µM; in assay [4] it was 7.92 µM; in [8] it was more than 100 µM; in assay [5], 50 µM. In addition, the TGI is more than 100 µM in assay [6], 78.6 µM in assay [7], 39 µM in [9] and 39.9 µM in assay [10].
Turning to `CCCCCCCCCCCCCCCc1ccc(OCC(O)CO)cc1` (centres undefined), the TGI is 49.1 µM in assay [1]; 50.1 µM in [2]; 32.1 µM in assay [3]; 40.8 µM in [4]; more than 100 µM in assay [8]; more than 100 µM in assay [5]. In addition, the TGI is 31.3 µM in assay [6], more than 100 µM in assay [7] and more than 100 µM in [10].
As to `N#Cc1c(NC(=S)Nc2ccc(Cl)cc2)sc2c1CCCC2`, the TGI in [1], in [3], in assay [4], in assay [8], in [6] and in assay [7] was more than 100 µM each time. Also, the TGI in assay [9] and in assay [10] was more than 100 µM throughout.
On to `Nc1cc2c(nnn2C2OC(COCc3ccccc3)C(OCc3ccccc3)C2OCc2ccccc2)c(=O)[nH]1` (centres undefined), for which the TGI was more than 100 µM in assay [1]; more than 100 µM in assay [2]; 53.2 µM in assay [3]; more than 100 µM in [4]; more than 100 µM in [8]; more than 100 µM in assay [5]. Further, the TGI in assay [6] was 46.9 µM; in assay [7] it was 52.1 µM; in assay [9] it was 83.9 µM; in assay [10] it was more than 100 µM.
As to `CC(C)CCC[C@@H](C)[C@H]1CC[C@H]2[C@@H]3CC[C@H]4C[C@H](N)CC[C@]4(C)[C@H]3CC[C@]12C`, the TGI in [1] is more than 100 µM; in [2] it was 48.1 µM; in assay [3] it was 83 µM; in assay [4] it was 65.4 µM; in assay [8], 36.7 µM; in [5] it was 64.5 µM. The TGI in [6] is more than 100 µM; in [7] it was 37.2 µM; in assay [9] it was 68.4 µM; in assay [10], 57.5 µM.
For `CS(=O)(=O)OC1CN2CCC1CC2` (centres undefined), the TGI in assay [1], in [2], in assay [3], in assay [4], in assay [8] and in [5] was more than 100 µM each time. Further, the TGI in assay [6], in assay [7], in [9] and in assay [10] was more than 100 µM each time.
As to `O=C(C[C@H](NC(=O)OCc1ccccc1)C(=O)NC1Cc2ccccc2OC1=O)OCc1ccccc1` (some centres undefined), the TGI in assay [8] is more than 100 µM; in assay [5], more than 100 µM; in assay [6], 76.3 µM; in assay [9] it was 80.6 µM; in assay [10] it was more than 100 µM.
